From the NIST ThermoML archive (doi:10.1016/j.fluid.2009.02.001)
Values joined by “and” are separate entries in the source; they are usually repeats but may differ in a detail not shown here. Equal entries are not always repeated.

How the values were obtained:
[1] = for vapor or sublimation pressure: Liquid
[2] = Molar enthalpy of transition or fusion; details: Crystal; DSC

CCOc1ccc(NC(C)=O)cc1 [N-(4-ethoxyphenyl)ethanamide]
[1]
Details	Normal melting temperature [°C]	vapor or sublimation pressure
418.2 K, Nonisothermal thermogravimetry	–	0.088 kPa
420.2 K, Nonisothermal thermogravimetry	–	0.087 kPa
422.2 K, Nonisothermal thermogravimetry	–	0.102 kPa
424.3 K, Nonisothermal thermogravimetry	–	0.106 kPa
426.2 K, Nonisothermal thermogravimetry	–	0.146 kPa
428.2 K, Nonisothermal thermogravimetry	–	0.146 kPa
430.3 K, Nonisothermal thermogravimetry	–	0.162 kPa
432.3 K, Nonisothermal thermogravimetry	–	0.171 kPa
434.3 K, Nonisothermal thermogravimetry	–	0.199 kPa
438.2 K, Nonisothermal thermogravimetry	–	0.247 kPa
440.2 K, Nonisothermal thermogravimetry	–	0.259 kPa
442.2 K, Nonisothermal thermogravimetry	–	0.309 kPa
444.2 K, Nonisothermal thermogravimetry	–	0.329 kPa
446.2 K, Nonisothermal thermogravimetry	–	0.401 kPa
448.2 K, Nonisothermal thermogravimetry	–	0.396 kPa
450.2 K, Nonisothermal thermogravimetry	–	0.452 kPa
452.2 K, Nonisothermal thermogravimetry	–	0.479 kPa
454.2 K, Nonisothermal thermogravimetry	–	0.538 kPa
456.3 K, Nonisothermal thermogravimetry	–	0.589 kPa
458.2 K, Nonisothermal thermogravimetry	–	0.643 kPa
460.2 K, Nonisothermal thermogravimetry	–	0.707 kPa
460.3 K, Isothermal thermogravimetry	–	0.821 kPa
461.1 K, Isothermal thermogravimetry	–	0.829 kPa
461.9 K, Isothermal thermogravimetry	–	0.815 kPa
462.2 K, Isothermal thermogravimetry	–	0.899 kPa
462.2 K, Nonisothermal thermogravimetry	–	0.785 kPa
463.3 K, Isothermal thermogravimetry	–	0.958 kPa
464.1 K, Isothermal thermogravimetry	–	0.935 kPa
464.3 K, Isothermal thermogravimetry	–	0.96 kPa
464.3 K, Nonisothermal thermogravimetry	–	0.84 kPa
465.5 K, Isothermal thermogravimetry	–	1.054 kPa
466.2 K, Isothermal thermogravimetry	–	1.028 kPa and 1.087 kPa
466.3 K, Nonisothermal thermogravimetry	–	0.936 kPa
467.4 K, Isothermal thermogravimetry	–	1.116 kPa
468.1 K, Isothermal thermogravimetry	–	1.149 kPa
468.2 K, Nonisothermal thermogravimetry	–	1.057 kPa
468.3 K, Isothermal thermogravimetry	–	1.165 kPa
469.3 K, Isothermal thermogravimetry	–	1.242 kPa
470 K, Isothermal thermogravimetry	–	1.259 kPa
470.2 K, Nonisothermal thermogravimetry	–	1.11 kPa
470.3 K, Isothermal thermogravimetry	–	1.273 kPa
471 K, Isothermal thermogravimetry	–	1.26 kPa
471.8 K, Isothermal thermogravimetry	–	1.327 kPa
472.2 K, Isothermal thermogravimetry	–	1.381 kPa
472.2 K, Nonisothermal thermogravimetry	–	1.192 kPa
473.3 K, Isothermal thermogravimetry	–	1.377 kPa
474 K, Isothermal thermogravimetry	–	1.484 kPa
474.2 K, Nonisothermal thermogravimetry	–	1.324 kPa
474.3 K, Isothermal thermogravimetry	–	1.551 kPa
475.4 K, Isothermal thermogravimetry	–	1.567 kPa
476.1 K, Isothermal thermogravimetry	–	1.571 kPa
476.2 K, Isothermal thermogravimetry	–	1.666 kPa
476.2 K, Nonisothermal thermogravimetry	–	1.4 kPa
477.6 K, Isothermal thermogravimetry	–	1.691 kPa
478.3 K, Isothermal thermogravimetry	–	1.709 kPa and 1.766 kPa
478.3 K, Nonisothermal thermogravimetry	–	1.559 kPa
479.1 K, Isothermal thermogravimetry	–	1.789 kPa
479.8 K, Isothermal thermogravimetry	–	1.808 kPa
480.2 K, Isothermal thermogravimetry	–	1.915 kPa
480.2 K, Nonisothermal thermogravimetry	–	1.679 kPa
481.2 K, Isothermal thermogravimetry	–	2.014 kPa
482 K, Isothermal thermogravimetry	–	2.037 kPa
482.3 K, Isothermal thermogravimetry	–	2.099 kPa
482.3 K, Nonisothermal thermogravimetry	–	1.802 kPa
483.3 K, Isothermal thermogravimetry	–	2.204 kPa
484.1 K, Isothermal thermogravimetry	–	2.228 kPa
484.3 K, Isothermal thermogravimetry	–	2.276 kPa
484.3 K, Nonisothermal thermogravimetry	–	1.945 kPa
485.3 K, Isothermal thermogravimetry	–	2.4 kPa
486 K, Isothermal thermogravimetry	–	2.495 kPa
486.2 K, Isothermal thermogravimetry	–	2.488 kPa
486.2 K, Nonisothermal thermogravimetry	–	2.088 kPa
487.1 K, Isothermal thermogravimetry	–	2.633 kPa
487.8 K, Isothermal thermogravimetry	–	2.702 kPa
488.2 K, Nonisothermal thermogravimetry	–	2.229 kPa
488.3 K, Isothermal thermogravimetry	–	2.686 kPa
489 K, Isothermal thermogravimetry	–	2.881 kPa
489.8 K, Isothermal thermogravimetry	–	2.981 kPa
490.2 K, Isothermal thermogravimetry	–	2.941 kPa
490.3 K, Nonisothermal thermogravimetry	–	2.41 kPa
491.1 K, Isothermal thermogravimetry	–	3.159 kPa
492.3 K, Nonisothermal thermogravimetry	–	2.535 kPa
494.3 K, Nonisothermal thermogravimetry	–	2.717 kPa
496.2 K, Nonisothermal thermogravimetry	–	2.889 kPa
498.2 K, Nonisothermal thermogravimetry	–	3.001 kPa
500.3 K, Nonisothermal thermogravimetry	–	3.29 kPa
502.3 K, Nonisothermal thermogravimetry	–	3.213 kPa
Crystal, DTA	136.5	–

Details	Molar enthalpy of transition or fusion [kcal/mol]
[2]	7.17
